Results on one molecule are retold here after patent US20110190227A1, “Antagonists of Prostaglandin D2 Receptors” (Amira Pharmaceuticals, Inc., priority 2008, published 2011).

In one test the target is T1, human DP2 receptor (Homo sapiens, UniProt Q9Y5Y4).
T1 construct: expressed in transfected cells
T1 sequence (Q9Y5Y4 1-395): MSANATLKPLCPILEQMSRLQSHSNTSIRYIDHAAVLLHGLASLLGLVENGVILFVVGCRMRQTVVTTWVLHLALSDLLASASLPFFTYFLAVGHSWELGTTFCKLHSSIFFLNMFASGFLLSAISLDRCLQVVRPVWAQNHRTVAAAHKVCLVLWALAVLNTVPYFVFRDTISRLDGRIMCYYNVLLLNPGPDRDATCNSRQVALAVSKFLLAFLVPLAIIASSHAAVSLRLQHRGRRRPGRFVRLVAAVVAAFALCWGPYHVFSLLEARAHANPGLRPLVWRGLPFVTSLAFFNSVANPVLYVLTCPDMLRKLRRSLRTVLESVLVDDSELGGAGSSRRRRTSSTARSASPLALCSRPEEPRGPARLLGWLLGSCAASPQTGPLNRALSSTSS
Description: DP2/CRTH2 radioligand binding assay ([3H]PGD2). The conditions noted are these: membranes of HEK293 cells expressing recombinant human DP2, 1 nM [3H]PGD2; read-out: hDP2. How it is done:
The ability of a compound to bind to the human DP2 receptor is assessed via a radioligand binding assay using [^3H]PGD2. HEK293 cells stably expressing recombinant human DP2 are resuspended in 10 mM Hepes, 7.4 containing 1 mM DTT, lysed and centrifuged at 75,000×g to pellet the membranes. The membranes are resuspended in 10 mM Hepes, 7.4 containing 1 mM DTF and 10% glycerol to approximately 5 mg protein/ml. Membranes (2-10 […]) are incubated in 96-well plates with 1 nM [^3H]PGD2 and test compound in Assay Buffer (50 mM Hepes, 10 mM MnCl2, 1 mM EDTA, plus or minus 0.2% human serum albumin, pH 7.4) for 60 minutes at room temperature. The reactions are terminated by rapid filtration through Whatman GF/C glass fibre filter plates. The filter plates were pre-soaked in 0.33% polythylenimine for 30 minutes at room temperature then washed in Wash Buffer (50 mM Hepes, 0.5 M NaCl pH 7.4) prior to harvesting. After harvesting, the filter plates are washed 3 times with 1 ml cold Wash Buffer then dried. Scintillant is then added to the plates and the radioactivity retained on the filters is determined on a Packard TopCount (Perkin Elmer). Specific binding is determined as total radioactive binding minus non-specific binding in the presence of 10 μM PGD2. IC50s were determined using GraphPad prism analysis of drug titration curves.

Another test has as its target T2, human DP1 receptor (Homo sapiens, UniProt Q13258).
T2 construct: tissue Biological Specialty Corporation; host or cells: human platelets, membrane preparation
T2 sequence (Q13258 1-359): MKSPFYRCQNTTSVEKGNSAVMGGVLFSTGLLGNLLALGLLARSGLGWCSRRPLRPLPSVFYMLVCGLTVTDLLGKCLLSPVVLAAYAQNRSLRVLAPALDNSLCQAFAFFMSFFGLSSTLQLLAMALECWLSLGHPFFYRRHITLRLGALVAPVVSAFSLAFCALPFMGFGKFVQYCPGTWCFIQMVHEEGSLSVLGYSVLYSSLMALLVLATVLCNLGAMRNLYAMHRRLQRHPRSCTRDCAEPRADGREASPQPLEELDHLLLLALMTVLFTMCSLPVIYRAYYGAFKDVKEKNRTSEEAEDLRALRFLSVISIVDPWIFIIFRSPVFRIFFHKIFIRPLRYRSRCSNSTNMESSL
Kind of test: DP1 radioligand membrane binding assay ([3H]BWA868C). The conditions noted are these: human platelet membranes, 2 nM [3H]BWA868C; read-out: hDP1. How it is done: The ability of a compound to bind to the human DP1 receptor was evaluated via a radioligand membrane binding assay using the DP1 selective synthetic ligand [^3H]BWA868C. Packed human platelets (Biological Specialty Corporation), were resuspended in 6 volumes of Hepes/HBSS buffer (10 mM Hepes, 1 mM DTT in Hanks Balanced Salt Solution (HBSS), lysed and centrifuged at 75,000×g to pellet the membranes. Membranes were resuspended in Hepes/HBSS buffer to approximately 12 mg protein/ml. Membranes (20 μg protein/well) are incubated in 96-well plates with 2 nM [^3H]BWA868C and test compound in Assay Buffer (50 mM Hepes, 10 mM MnCl2, 1 mM EDTA, plus or minus 0.2% human serum albumin, pH 7.4) for 60 minutes at room temperature. The reactions are terminated by rapid filtration through Whatman GF/C glass fibre filter plates. The filter plates were pre-soaked in 0.33% polyethylenimine for 30 minutes at room temperature then washed in Wash Buffer (50 mM Hepes, 0.5 M NaCl pH 7.4) prior to harvesting. After harvesting, the filter plates are washed 3 times with 1 ml cold Wash Buffer then dried. Scintillant is then added to the plates and the radioactivity retained on the filters is determined on a Packard TopCount (Perkin Elmer). Specific binding is determined as total radioactive binding minus non-specific binding in the presence of 10 μM BW A868C. IC50s were determined using GraphPad prism analysis of drug titration curves.

For `COc1ccc(CC(=O)O)cc1Oc1ccc(C(F)(F)F)cc1CSCC(F)(F)F` [Compound 1-2, {4-Methoxy-3-[2-(2,2,2-trifluoro-ethylsulfanylmethyl)-4-trifluoromethyl-phenoxy]-phenyl}-acetic acid], the IC50 is < 300 nM on human DP2 receptor and > 1000 nM at human DP1 receptor.
